Reference: PMC11145187 (Proceedings of the National Academy of Sciences of the …, 2024)
Residue numbers refer to the chain shown, from its start. One block for each compound: values may come before it.

Key:
[1] = molecular target: T1, AHR^V381 (Homo sapiens, UniProt P35869); test: RNA sequencing of treated versus mock-treated AHR^V381-expressing H9 cells; type: cell-based; set-up: they had not been changed in the editing process; endogenous in cells; host or cells: H9 human embryonic stem cells, a pool of 13 control clones that went through editing but remained wild type; conditions: 5 µM, 4 h
T1 sequence (P35869 11-848): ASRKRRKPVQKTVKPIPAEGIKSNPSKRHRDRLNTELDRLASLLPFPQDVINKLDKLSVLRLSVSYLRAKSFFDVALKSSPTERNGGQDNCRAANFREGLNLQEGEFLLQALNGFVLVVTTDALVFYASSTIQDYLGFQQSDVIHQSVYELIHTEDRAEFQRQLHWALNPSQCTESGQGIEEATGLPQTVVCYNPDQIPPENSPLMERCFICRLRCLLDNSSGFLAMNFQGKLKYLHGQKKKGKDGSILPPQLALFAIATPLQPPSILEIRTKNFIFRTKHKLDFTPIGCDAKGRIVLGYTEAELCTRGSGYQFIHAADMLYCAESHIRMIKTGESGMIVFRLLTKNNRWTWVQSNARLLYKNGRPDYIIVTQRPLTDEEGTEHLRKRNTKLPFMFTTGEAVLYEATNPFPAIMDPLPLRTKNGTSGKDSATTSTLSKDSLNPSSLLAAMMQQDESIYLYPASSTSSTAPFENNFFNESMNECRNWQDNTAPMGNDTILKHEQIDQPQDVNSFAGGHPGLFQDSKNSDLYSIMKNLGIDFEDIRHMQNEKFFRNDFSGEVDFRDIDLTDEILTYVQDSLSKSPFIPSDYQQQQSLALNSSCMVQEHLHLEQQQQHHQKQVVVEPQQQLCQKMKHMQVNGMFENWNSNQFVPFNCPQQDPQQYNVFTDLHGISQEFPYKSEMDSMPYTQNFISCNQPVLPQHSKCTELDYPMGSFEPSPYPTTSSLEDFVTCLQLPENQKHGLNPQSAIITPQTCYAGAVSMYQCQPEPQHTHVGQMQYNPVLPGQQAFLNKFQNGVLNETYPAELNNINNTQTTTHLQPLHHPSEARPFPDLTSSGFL
Text: (§1) the manufacturer's instructions.
(§2) manufacturer’s instructions.

[2] = molecular target: T2, AHR^A381 (Homo sapiens, UniProt P35869, V381A); conditions: 5 µM, 4 h
T2 sequence (P35869 11-848 V381A): T1 sequence (P35869 11-848) with V371A
Text: as §1, §2

[3] = tested on: AHR; set-up: method as in PMID 33260776; conditions: 10 nM, H9 cells; two genes less expressed, 14 higher expressed; cited from earlier work
[4] = tested on: AHR; set-up: method as in PMID 33230523; conditions: human cells overexpressing either AHR version; cited from earlier work
[5] = molecular target: T1, AHR^V381; conditions: AHR^V381 cells, 4 h
Description: We incubated the cells with different concentrations of AHR ligands and measured CYP1A1 and CYP1B1 mRNA levels after 4 h.
Error bars show SDs of four independent ligand treatments. qPCR were performed in triplicates.
AHR, CYP1A1 and CYP1B1 relative quantification and ligand assays
were purchased from Sigma-Aldrich, dissolved in DMSO (Invitrogen, D12345) to generate stocks 2000x
the final concentrations used in the ligand assays and stored at -20°C.
Four days prior to cell harvest, a single cell solution was prepared with Accutase and the cells were
3000 cells per well were seeded in 96 well plates
and cultured under normal cell culture conditions for four days, with the last media change 24h before cell
harvest. Ligands were added to a final concentration of 0.05% DMSO in the culture medium for four hours
similar to other work (13-15). Cell harvest, reverse transcription and quantitative real-time PCR was […]
for several samples also AHR was measured in a 20 µl multiplexed quantitative PCR reaction with 10 µl […]
GUSB) or Thermo Fisher Scientific (CYP1B1, AHR), sequences: Suppl, Table S1). Quantitative PCR was […]
5 min, 45x (95 °C 5 s, 60 °C 15 s, 72 °C 15 s, plate read). […]
Cq values were determined with Bio-Rad Laboratories’ CFX-Manager (version 3.1) and relative […]
gene in untreated wild type cells. The data were plotted and analyzed using GraphPad Prism (version 8.4.3). […]

- number of the 117 genes differing between AHR^A381 and AHR^V381 cells that change expression upon inhibitor treatment [1]: none
- number of the 117 genes differing between AHR^A381 and AHR^V381 cells that change expression upon inhibitor treatment [2]: 20 genes
Compound: Cc1ccccc1N=Nc1ccc(NC(=O)c2ccnn2C)c(C)c1 [CH-223191]
- target gene expression upon inhibitor treatment [1]: tends to be further reduced upon treatment with the inhibitor, albeit not significantly so

Compound: Clc1cc2c(cc1Cl)Oc1cc(Cl)c(Cl)cc1O2 [2,3,7,8-Tetrachlorodibenzo-p-dioxin]
- number of the 117 differentially expressed genes affected by TCDD exposure [3]: 16 genes
- difference between the two AHR forms in induction of CYP1A1 [4]: no differences

Compound: c1ccc2c(c1)cc1ccc3cccc4ccc2c1c34 [Benzo(a)pyrene]
- concentration at which CYP1A1 and CYP1B1 mRNA levels are slightly induced [5]: 1000 nM
